Measurements from patent US20070037837A1, “Quinazoline derivatives” (priority 2003, published 2007).

Tests used:
[1] = test system: KB cells; assay: EGFR driven KB cell proliferation assay, Test (b); type: cell-based; settings: Homo sapiens, 96 h, EGF 1 ng/ml, 4 days, MTT
Experimental: This assay measures the ability of a test compound to inhibit the proliferation of KB cells (human naso-pharangeal carcinoma obtained from the American Type Culture Collection (ATCC).
KB cells (human naso-pharangeal carcinoma obtained from the ATCC were cultured in Dulbecco's modified Eagle's medium (DMEM) containing 10% foetal calf serum, 2 mM glutamine and non-essential amino acids at 37° C. in a 7.5% CO2 air incubator. Cells were harvested from the stock flasks using Trypsin/ethylaminediaminetetraacetic acid (EDTA). Cell density was measured using a haemocytometer and viability was calculated using trypan blue solution before being seeded at a density of 1.25×10^3 cells per well of a 96 well plate in DMEM containing 2.5% charcoal stripped serum, 1 mM glutamine and non-essential amino acids at 37° C. in 7.5% CO2 and allowed to settle for 4 hours.
Following adhesion to the plate, the cells are treated with or without EGF (final concentration of 1 ng/ml) and with or without compound at a range of concentrations in dimethylsulfoxide (DMSO) (0.1% final) before incubation for 4 days. Following the incubation period, cell numbers were determined by addition of 50 μl of 3-(4,5-Dimethylthiazol-2-yl)-2,5-diphenyltetrazolium bromide (MTT) (stock 5 mg/ml) for 2 hours. MTT solution was then tipped off, the plate gently tapped dry and the cells dissolved upon the addition of 100 μl of DMSO.
Absorbance of the solubilised cells was read at 540 nm using a Molecular Devices ThermoMax microplate reader. Inhibition of proliferation was expressed as an IC50 value. This was determined by calculation of the concentration of compound that was required to give 50% inhibition of proliferation. The range of proliferation was calculated from the positive (vehicle plus EGF) and negative (vehicle minus EGF) control values.

[2] = biological target: T1, erbB2 (Homo sapiens, UniProt P04626); assay: Clone 24 phospho-erbB2 cell assay, Test (e); type: cell-based; settings: MCF7 derived Clone 24 cells, 4 hrs; read-out: IC50 Test (e): Inhibition of erbB2 tyrosine kinase protein phosphorylation
T1 construct: to give a cell line that overexpresses full length wild type erbB2 protein; expressed in transfected cells; host or cells: MCF7 (breast carcinoma) derived 'Clone 24' cells
T1 sequence (P04626 23-1255): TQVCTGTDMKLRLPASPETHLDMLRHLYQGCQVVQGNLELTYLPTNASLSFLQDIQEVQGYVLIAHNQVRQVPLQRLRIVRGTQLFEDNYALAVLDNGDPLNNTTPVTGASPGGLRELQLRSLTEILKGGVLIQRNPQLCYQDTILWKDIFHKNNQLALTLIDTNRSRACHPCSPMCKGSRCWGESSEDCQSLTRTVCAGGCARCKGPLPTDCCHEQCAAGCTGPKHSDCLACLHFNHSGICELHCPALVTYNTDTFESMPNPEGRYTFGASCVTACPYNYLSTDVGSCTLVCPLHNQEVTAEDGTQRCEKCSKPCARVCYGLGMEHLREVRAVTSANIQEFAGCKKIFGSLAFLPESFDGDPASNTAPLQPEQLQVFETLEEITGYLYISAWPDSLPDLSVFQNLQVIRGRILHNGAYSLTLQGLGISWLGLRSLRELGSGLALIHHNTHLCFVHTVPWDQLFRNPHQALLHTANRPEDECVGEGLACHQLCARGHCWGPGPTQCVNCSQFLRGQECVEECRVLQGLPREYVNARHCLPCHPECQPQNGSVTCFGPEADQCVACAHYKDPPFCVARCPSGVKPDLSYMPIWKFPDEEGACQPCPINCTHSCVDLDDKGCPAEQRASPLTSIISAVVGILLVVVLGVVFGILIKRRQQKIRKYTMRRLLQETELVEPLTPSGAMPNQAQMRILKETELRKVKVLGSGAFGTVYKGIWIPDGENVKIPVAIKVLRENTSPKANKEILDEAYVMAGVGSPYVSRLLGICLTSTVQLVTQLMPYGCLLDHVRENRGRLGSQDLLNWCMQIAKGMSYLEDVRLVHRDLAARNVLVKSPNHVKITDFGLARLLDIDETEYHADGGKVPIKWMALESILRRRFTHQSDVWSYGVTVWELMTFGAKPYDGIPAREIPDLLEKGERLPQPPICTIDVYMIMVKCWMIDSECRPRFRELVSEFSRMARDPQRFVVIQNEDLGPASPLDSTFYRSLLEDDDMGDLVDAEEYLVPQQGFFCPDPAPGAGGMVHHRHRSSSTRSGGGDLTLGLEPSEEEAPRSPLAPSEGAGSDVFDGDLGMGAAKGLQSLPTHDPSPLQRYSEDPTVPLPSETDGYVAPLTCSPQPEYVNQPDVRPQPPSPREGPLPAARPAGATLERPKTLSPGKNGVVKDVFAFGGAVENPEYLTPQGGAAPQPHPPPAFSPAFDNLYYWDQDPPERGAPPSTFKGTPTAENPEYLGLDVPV
Experimental: This immunofluorescence end point assay measures the ability of a test compound to inhibit the phosphorylation of erbB2 in a MCF7 (breast carcinoma) derived cell line which was generated by transfecting MCF7 cells with the full length erbB2 gene using standard methods to give a cell line that overexpresses full length wild type erbB2 protein (hereinafter ‘Clone 24’ cells).
Clone 24 cells were cultured in Growth Medium (phenol red free Dulbecco's modified Eagle's medium (DMEM) containing 10% foetal bovine serum, 2 mM glutamine and 1.2 mg/ml G418) in a 7.5% CO2 air incubator at 37° C. Cells were harvested from T75 stock flasks by washing once in PBS (phosphate buffered saline, pH 7.4, Gibco No. 10010-015) and harvested using 2 mls of Trypsin (1.25 mg/ml)/ethylaminediaminetetraacetic acid (EDTA) (0.8 mg/ml) solution. The cells were resuspended in Growth Medium. Cell density was measured using a haemocytometer and viability was calculated using Trypan Blue solution before being further diluted in Growth Medium and seeded at a density of 1×10^4 cells per well (in 100 ul) into clear bottomed 96 well plates (Packard, No. 6005182).
3 days later, Growth Medium was removed from the wells and replaced with 100 ul Assay Medium (phenol red free DMEM, 2 mM glutamine, 1.2 mg/ml G418) either with or without erbB inhibitor compound. Plates were returned to the incubator for 4 hrs and then 20 μl of 20% formaldehyde solution in PBS was added to each well and the plate was left at room temperature for 30 minutes. This fixative solution was removed with a multichannel pipette, 100 μl of PBS was added to each well and then removed with a multichannel pipette and then 50 μl PBS was added to each well. Plates were then sealed and stored for up to 2 weeks at 4° C.
Immunostaining was performed at room temperature. Wells were washed once with 200 μl PBS/Tween 20 (made by adding 1 sachet of PBS/Tween dry powder (Sigma, No. P3563) to 1 L of double distilled H2O) using a plate washer then 200 μl Blocking Solution (5% Marvel dried skimmed milk (Nestle) in PBS/Tween 20) was added and incubated for 10 minutes. Blocking Solution was removed using a plate washer and 200 μl of 0.5% Triton X-100/PBS was added to permeabalise the cells. After 10 minutes, the plate was washed with 200 μl PBS/Tween 20 and then 200 μl Blocking Solution was added once again and incubated for 15 minutes. […]
The Fluorescence signal is each well was measured using an Acumen Explorer Instrument (Acumen Bioscience Ltd.), a plate reader that can be used to rapidly quantitate features of images generated by laser-scanning. […]

[3] = biological target: T2, EGFR tyrosine kinase (Homo sapiens, UniProt P00533); assay: Protein tyrosine kinase phosphorylation assay, Test (a), EGFR; type: biochemical; settings: recombinant intracellular fragment, ATP at Km; read-out: IC50 Test (a): Inhibition of EGFR tyrosine kinase protein phosphorylation
T2 construct: Recombinant intracellular fragments of EGFR, erbB2 and erbB4; made in house; host or cells: baculovirus/Sf21 insect cells (cleared lysate used)
T2 sequence (P00533 669-1210 limits assumed): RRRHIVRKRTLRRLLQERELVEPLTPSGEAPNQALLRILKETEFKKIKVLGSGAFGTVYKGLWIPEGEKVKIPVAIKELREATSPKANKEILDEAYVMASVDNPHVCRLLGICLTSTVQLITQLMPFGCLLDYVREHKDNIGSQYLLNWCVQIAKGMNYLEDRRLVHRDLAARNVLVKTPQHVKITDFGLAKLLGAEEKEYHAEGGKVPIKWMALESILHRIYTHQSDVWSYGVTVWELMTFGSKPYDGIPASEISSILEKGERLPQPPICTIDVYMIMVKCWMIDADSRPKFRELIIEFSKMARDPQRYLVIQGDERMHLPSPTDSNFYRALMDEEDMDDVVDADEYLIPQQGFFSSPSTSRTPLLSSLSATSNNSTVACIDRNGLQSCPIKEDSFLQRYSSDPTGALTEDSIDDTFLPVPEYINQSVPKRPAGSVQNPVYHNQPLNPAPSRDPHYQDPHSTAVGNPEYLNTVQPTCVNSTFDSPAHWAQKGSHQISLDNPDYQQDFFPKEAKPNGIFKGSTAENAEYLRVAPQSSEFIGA
Experimental: (§1) This test measures the ability of a test compound to inhibit the phosphorylation of a tyrosine containing polypeptide substrate by EGFR and erbB2 tyrosine kinase enzyme.
(§2) Recombinant intracellular fragments of EGFR, erbB2 and erbB4 (accession numbers X00588, X03363 and L07868 respectively) were cloned and expressed in the baculovirus/Sf21 system. Lysates were prepared from these cells by treatment with ice-cold lysis buffer (20 mM N-2-hydroxyethylpiperizine-N′-2-ethanesulfonic acid (HEPES) pH 7.5, 150 mM NaCl, 10% glycerol, 1% Triton X-100, 1.5 mM MgCl2, 1 mM ethylene glycol-bis(β-aminoethyl ether) N′,N′,N′,N′-tetraacetic acid (EGTA), plus protease inhibitors and then cleared by centrifugation.
Constitutive kinase activity of the recombinant protein was determined by its ability to phosphorylate a synthetic peptide (made up of a random co-polymer of Glutamic Acid, Alanine and Tyrosine in the ratio of 6:3:1). Specifically, Maxisorb™ 96-well immunoplates were coated with synthetic peptide (0.2 μg of peptide in a 100 μl phosphate buffered saline (PBS) solution and incubated at 4° C. overnight). Plates were washed in PBS-T (phosphate buffered saline with 0.5% Tween 20) then in 50 mM HEPES pH 7.4 at room temperature to remove any excess unbound synthetic peptide. […]
The immobilised phospho-peptide product of the reaction was detected by immunological methods. […] After further washing, HRP activity in each well of the plate was measured colorimetrically using 22′-Azino-di-[3-ethylbenzthiazoline sulfonate (6)] diammonium salt crystals (ABTS™ from Roche) as a substrate.
(§3) Quantification of colour development and thus enzyme activity was achieved by the measurement of absorbance at 405 nm on a Molecular Devices ThermoMax microplate reader. Kinase inhibition for a given compound was expressed as an IC50 value. […] The range of phosphorylation was calculated from the positive (vehicle plus ATP) and negative (vehicle minus ATP) control values.

[4] = biological target: T3, erbB2 tyrosine kinase (Homo sapiens, UniProt P04626); assay: Protein tyrosine kinase phosphorylation assay, Test (a), erbB2; type: biochemical; settings: recombinant intracellular fragment, ATP at Km; read-out: IC50 Test (a): Inhibition of erbB2 tyrosine kinase protein phosphorylation
T3 construct: Recombinant intracellular fragments of EGFR, erbB2 and erbB4; made in house; host or cells: baculovirus/Sf21 insect cells (cleared lysate used)
T3 sequence (P04626 676-1255 limits assumed): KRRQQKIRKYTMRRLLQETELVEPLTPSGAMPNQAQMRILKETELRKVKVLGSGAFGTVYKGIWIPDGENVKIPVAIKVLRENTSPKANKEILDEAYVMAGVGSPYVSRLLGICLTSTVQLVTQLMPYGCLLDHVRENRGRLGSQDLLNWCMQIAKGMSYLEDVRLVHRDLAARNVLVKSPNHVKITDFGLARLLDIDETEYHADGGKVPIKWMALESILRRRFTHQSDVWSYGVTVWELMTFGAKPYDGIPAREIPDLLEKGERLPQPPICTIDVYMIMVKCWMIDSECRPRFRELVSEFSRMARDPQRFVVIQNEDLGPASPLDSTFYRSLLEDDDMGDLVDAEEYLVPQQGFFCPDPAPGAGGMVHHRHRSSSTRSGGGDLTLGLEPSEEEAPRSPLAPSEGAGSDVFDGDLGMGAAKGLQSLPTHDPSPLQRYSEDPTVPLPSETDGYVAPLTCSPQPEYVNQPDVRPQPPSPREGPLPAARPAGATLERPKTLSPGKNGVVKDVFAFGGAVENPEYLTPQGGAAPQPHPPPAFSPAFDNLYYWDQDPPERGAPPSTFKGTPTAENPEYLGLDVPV
Experimental: as §1, §2
Constitutive kinase activity of the recombinant protein was determined by its ability to phosphorylate a synthetic peptide (made up of a random co-polymer of Glutamic Acid, Alanine and Tyrosine in the ratio of 6:3:1). Specifically, Maxisorb™ 96-well immunoplates were coated with synthetic peptide (0.2 μg of peptide in a 100 μl phosphate buffered saline (PBS) solution and incubated at 4° C. overnight). Plates were washed in PBS-T (phosphate buffered saline with 0.5% Tween 20) then in 50 mM HEPES pH 7.4 at room temperature to remove any excess unbound synthetic peptide. EGFR, ErbB2 or ErbB4 tyrosine kinase activity was assessed by incubation in peptide coated plates for 20 minutes at 22° C. in 100 mM HEPES pH 7.4, adenosine trisphosphate (ATP) at Km concentration for the respective enzyme, 10 mM MnCl2, 0.1 mM Na3VO4, 0.2 mM DL-dithiothreitol (DTT), 0.1% Triton X-100 with test compound in DMSO (final concentration of 2.5%). Reactions were terminated by the removal of the liquid components of the assay followed by washing of the plates with PBS-T.
The immobilised phospho-peptide product of the reaction was detected by immunological methods. Firstly, plates were incubated for 90 minutes at room temperature with anti-phosphotyrosine primary antibodies that were raised in the mouse (4G10 from Upstate Biotechnology). Following extensive washing, plates were treated with Horseradish Peroxidase (HRP) conjugated sheep anti-mouse secondary antibody (NXA931 from Amersham) for 60 minutes at room temperature. After further washing, HRP activity in each well of the plate was measured colorimetrically using 22′-Azino-di-[3-ethylbenzthiazoline sulfonate (6)] diammonium salt crystals (ABTS™ from Roche) as a substrate.
as §3

IC50 [1] | IC50 [2] | IC50 [3] | IC50 [4] | SMILES
35 nM | 9 nM | 1 nM | 38 nM | COC(=O)N1CCC(Oc2cc3c(Nc4cccc(Cl)c4F)ncnc3cc2OC)CC1 [Example 1, 4-(3-Chloro-2-fluoroanilino)-7-methoxy-6-{[1-(methoxycarbonyl)piperidin-4-yl]oxy}quinazoline]
9 nM | 36 nM | 4 nM | 10 nM | COc1cc2ncnc(Nc3cccc(Cl)c3F)c2cc1OC1CCN(C(=O)OCCN2CCCC2)CC1 [Example 2, 4-(3-Chloro-2-fluoroanilino)-7-methoxy-6-{[1-{2-(pyrrolidin-1-yl)ethoxycarbonyl}piperidin-4-yl]oxy}quinazoline]
15 nM | 29 nM | 2 nM | 2 nM | COc1cc2ncnc(Nc3ccc(F)c(Cl)c3F)c2cc1OC1CCN(C(=O)OCCN2CCCC2)CC1 [Example 4, 4-(3-Chloro-2,4-difluoroanilino)-7-methoxy-6-{[1-{2-(pyrrolidin-1-yl)ethoxycarbonyl}piperidin-4-yl]oxy}quinazoline]
10 nM | 41 nM | – | 2 nM | COc1cc2ncnc(Nc3cccc(Cl)c3F)c2cc1OC1CCN(C(=O)OCCN2CCCCC2)CC1 [Example 6, 4-(3-Chloro-2-fluoroanilino)-7-methoxy-6-{[1-{2-(piperidin-1-yl)ethoxycarbonyl}piperidin-4-yl]oxy}quinazoline]
